Values after ≈ are worked out from the molar mass of the structure shown. Like-named read-outs stand apart in the source and are kept apart here.

Experiment [1] deals with B. gingivalis. The experiment can be described thus: Antibacterial activity (MIC) against B. gingivalis. It counts as cell-based, Bacteroides gingivalis (isolated from a human oral cavity). Conditions: for MIC: Porphyromonas gingivalis. As for the experimental part:
(§1) A sample of vitamin L2 (methylthioadenosine) (Sigma Chemical Company) having the chemical formula shown below was dissolved in water, [drawing 3] the pH was adjusted to 7, and sterilization was carried out by autoclaving at 121° C. for 15 min or by filtration with membrane filters, to form a sterile solution. This sample solution mentioned above was added into a sterile basal medium (refer to Table 1) together with sterile distilled water to adjust the concentration of the sample. To this medium, S. mutans causing dental caries, Actinomyces naeslundii and A. viscosus causing dental caries and periondontitis, and B. gingivalis and Fusobacterium nucleatum causing periodontitis, each bacterium being isolated from a human oral cavity, were repectively inoculated. After incubation at 37° C. for 24 hrs, the MIC (minimal growth-inhibitoryconcentration: μg/ml) against each bacterium was determined. As a control, a 0.85% NaCl solution was used instead of the sample solution of vitamin L2. Furthermore, the effect of vitamin L2 on intestinal bacteria such as S. faecium, S. faecalis, Bifidobacterium bifidum, Lactobacillus acidophilus, and L. fermentum, isolated from the feces of healthy humans, was also determined by the same procedures.

The test system of experiment [2] is S. mutans. As to the kind of experiment: Antibacterial activity (MIC) against S. mutans. Type of experiment: cell-based, Streptococcus mutans (isolated from a human oral cavity). The note with it: Streptococcus mutans. The protocol: as §1
Experiment [3] has as its system Bif. bifidum. As to the kind of experiment: Effect on intestinal bacteria (MIC), Bif. bifidum. Type of experiment: cell-based. Conditions: Bifidobacterium bifidum, GAM broth, 37° C., 24 hrs, read-out: MIC (minimal growth-inhibitory concentration). As for the experimental part: as §1
Experiment [4] concerns S. faecalis. As to the kind of experiment: Effect on intestinal bacteria (MIC), S. faecalis. It counts as cell-based, S. faecalis (isolated from the feces of healthy humans). The note with it: Enterococcus faecalis, Todd-Hewitt broth, 37° C., 24 hrs, read-out: MIC (minimal growth-inhibitory concentration). The protocol:
as §1

Experiment [5] relates to L. fermentum. The experiment can be described thus: Effect on intestinal bacteria (MIC), L. fermentum. Type of experiment: cell-based, L. fermentum (isolated from the feces of healthy humans). Conditions: Limosilactobacillus fermentum, Rogosa broth, 37° C., 24 hrs, read-out: MIC (minimal growth-inhibitory concentration). The protocol: as §1
The test system of experiment [6] is A. naeslundii. The experiment can be described thus: Antibacterial activity (MIC) against A. naeslundii. Type of experiment: cell-based, Actinomyces naeslundii (isolated from a human oral cavity). Conditions: Actinomyces naeslundii, Brain heart infusion broth, 37° C., 24 hrs, read-out: MIC (minimal growth-inhibitory concentration). As for the experimental part:
as §1

The subject of experiment [7] is L. acidophilus. As to the kind of experiment: Effect on intestinal bacteria (MIC), L. acidophilus. It counts as cell-based. The note with it: Lactobacillus acidophilus, Rogosa broth, 37° C., 24 hrs, read-out: MIC (minimal growth-inhibitory concentration). The protocol:
as §1

Experiment [8] has as its system S. faecium. As to the kind of experiment: Effect on intestinal bacteria (MIC), S. faecium. It counts as cell-based, S. faecium (isolated from the feces of healthy humans). Conditions: Enterococcus faecium, Todd-Hewitt broth, 37° C., 24 hrs, read-out: MIC (minimal growth-inhibitory concentration). As for the experimental part: as §1
For experiment [9], the system named is F. nucleatum. The experiment can be described thus: Antibacterial activity (MIC) against F. nucleatum. Type of experiment: cell-based, Fusobacterium nucleatum (isolated from a human oral cavity). Conditions: Fusobacterium nucleatum, GAM broth, 37° C., 24 hrs, read-out: MIC (minimal growth-inhibitory concentration). The protocol:
as §1

In experiment [10] the test system is A. viscosus. As to the kind of experiment: Antibacterial activity (MIC) against A. viscosus. It counts as cell-based, A. viscosus (isolated from a human oral cavity). Conditions: Actinomyces viscosus, Brain heart infusion broth, 37° C., 24 hrs, read-out: MIC (minimal growth-inhibitory concentration). As for the experimental part:
as §1

Where [11] appears, read: 24 h, B. gingivalis, same procedures as in Example 1, read-out: MIC, B. gingivalis (Table 3).
The mark [12] stands for this setting: 24 h, S. mutans, same procedures as in Example 1, read-out: MIC, S. mutans (Table 3).
[13] abbreviates: 24 h, read-out: MIC, S. mutans (Table 3).

As to `CNc1ncnc2c1ncn2[C@@H]1O[C@H](CO)[C@@H](O)[C@H]1O` [Material (2), N-6 methyladenosine], the MIC is 250 µg/mL (≈ 889 µM) in experiment [1] (setting [11]) and 1000 µg/mL (≈ 3560 µM) in [2] (setting [12]).
Take `C[C@H]1O[C@@H](n2cnc3c(N)ncnc32)[C@H](O)[C@@H]1O` [Material (8), 5'-deoxyadenosine]: the values for the MIC in [1] (setting [11]) and in [2] (setting [12]) were 125 µg/mL (≈ 498 µM) and 1000 µg/mL (≈ 3980 µM), respectively.
The corresponding values for `OC[C@H]1O[C@@H](n2cnc3c(NCc4ccccc4)ncnc32)[C@H](O)[C@@H]1O` [Material (3), N-6 benzyladenosine] are 250 µg/mL (≈ 700 µM) and 1000 µg/mL (≈ 2800 µM).
The corresponding values for `Nc1ncnc2c1ncn2[C@@H]1O[C@H](CCl)[C@@H](O)[C@H]1O` [Material (1), 5'-deoxy-5'-chloroadenosine] are 125 µg/mL (≈ 438 µM) and 250 µg/mL (≈ 875 µM).
Regarding `Nc1ncnc2c1ncn2[C@@H]1O[C@H](CO)[C@@H](O)[C@H]1O` [Material (6), adenosine], the “MIC, B. gingivalis (Table 3)” value in [1] (B. gingivalis, same procedures as in Example 1) was “No inhibition”. Besides, the MIC in [2] (setting [13]) was determined as 1000 µg/mL (≈ 3740 µM).
In the case of `Nc1nc(Cl)nc2c1ncn2[C@@H]1O[C@H](CO)[C@@H](O)[C@H]1O` [Material (4), 2-chloroadenosine], the MIC in experiment [1] (setting [11]) stood at 250 µg/mL (≈ 829 µM); in experiment [2] (setting [12]), 1000 µg/mL (≈ 3310 µM).
With `CSC[C@H]1O[C@@H](n2cnc3c(N)ncnc32)[C@H](O)[C@@H]1O` [vitamin L2, methylthioadenosine], the MIC is over 1000 µg/mL in [3]; over 1000 µg/mL in [4]; 125 µg/mL (≈ 420 µM) in experiment [1] (B. gingivalis, GAM broth, 37° C., 24 hrs, read-out: MIC (minimal growth-inhibitory concentration)); 1000 µg/mL (≈ 3360 µM) in experiment [5]; 32 µg/mL (≈ 108 µM) in experiment [6]; over 1000 µg/mL in [7]. Besides, the MIC in experiment [2] (S. mutans, Todd-Hewitt broth, 37° C., 24 hrs, read-out: MIC (minimal growth-inhibitory concentration)) is 63 µg/mL (≈ 212 µM); in experiment [8], over 1000 µg/mL; in [9], 500 µg/mL (≈ 1680 µM); in [10] it was 63 µg/mL (≈ 212 µM).
For the compound `CC(C)CSC[C@H]1O[C@@H](n2cnc3c(N)ncnc32)[C@H](O)[C@@H]1O` [Material (5), (5'-deoxy) isobutylthioadenosine], the MIC in experiment [1] (setting [11]) was 250 µg/mL (≈ 737 µM); in [2] (setting [12]), 1500 µg/mL (≈ 4420 µM).
For the compound `Nc1ncnc2c1ncn2[C@@H]1O[C@H](CO)[C@@H](O)[C@@H]1O` [Material (7), spongoadenosine], the MIC in experiment [1] (24 h, read-out: MIC, B. gingivalis (Table 3)) was 16 µg/mL (≈ 59.9 µM); in experiment [2] (setting [13]) it was 1500 µg/mL (≈ 5610 µM).

(Values after patent publication US4948783A, “Anticariogenic or antiperidontitic method” (Kabushiki Kaisya Advance Kaihatsu kenkyujo, priority 1985, dated 1990).)
